Test results: patent publication US9376425B2, “Heterocyclic compounds as MDM2 inhibitors for the treatment of cancer” (AMGEN INC., priority 2011, dated 2016)

Target: T1, human MDM2 (GST-hMDM2 1-188), interaction with biotinylated-p53 (1-83) (Homo sapiens, UniProt Q00987)
T1 construct: Amino acid residues 1-188 of human MDM2 were expressed; made in house; host or cells: Escherichia coli
Test: improved HTRF assay (HTRF2 assay), inhibition of HDM2-p53 interaction
Assay type: binding
Conditions: 0.2 nM GST-hMDM2, 0.5 nM biotinylated-p53, 100 mM KF
Method in brief: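 Time-resolved fluorescence (HTRF) read after >4 h equilibration with SA-XLent/anti-GST cryptate/KF detection reagents. Reaction: compound plus GST-hMDM2 for 20 min at room temperature, then E. coli-expressed biotinylated p53 residues 1-83 for 60 min, 2% DMSO final. Inhibition expressed versus nutlin-3.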

T1 sequence (Q00987 1-188): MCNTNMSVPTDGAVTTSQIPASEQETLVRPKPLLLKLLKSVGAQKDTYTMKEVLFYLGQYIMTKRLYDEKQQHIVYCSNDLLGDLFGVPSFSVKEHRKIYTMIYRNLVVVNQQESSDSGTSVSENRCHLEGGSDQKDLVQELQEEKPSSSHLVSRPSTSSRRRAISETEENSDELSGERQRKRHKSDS

SMILES	IC50 [nM]
CC[C@@H](CS(=O)(=O)C(C)(C)C)N1C(=O)[C@@H](CC(=O)CO)O[C@H](c2cccc(Cl)c2)[C@H]1c1ccc(Cl)cc1 (single isomer, unassigned) [Example 245, (2R,5R,6R)-4-((S)-1-(tert-butylsulfonyl)butan-2-yl)-6-(3-chlorophenyl)-5-(4-chlorophenyl)-2-(3-hydroxy-2-oxopropyl)morpholin-3-one or (2S,5R,6R)-4-((S)-1-(tert-butylsulfonyl)butan-2-yl)-6-(3-chlorophenyl)-5-(4-chlorophenyl)-2-(3-hydroxy-2-oxopropyl)morpholin-3-one]	9
CC[C@@H](CS(=O)(=O)N1CCC[C@H]1C)N1C(=O)[C@@H](CC(=O)O)O[C@H](c2cccc(Cl)c2)[C@H]1c1ccc(Cl)cc1 (single isomer, unassigned) [Example 210, 2-((2R,5R,6R)-6-(3-chlorophenyl)-5-(4-chlorophenyl)-4-((S)-1-(((R)-2-methylpyrrolidin-1-yl)sulfonyl)butan-2-yl)-3-oxomorpholin-2-yl)acetic acid or 2-((2S,5R,6R)-6-(3-chlorophenyl)-5-(4-chlorophenyl)-4-((S)-1-(((R)-2-methylpyrrolidin-1-yl)sulfonyl)butan-2-yl)-3-oxomorpholin-2-yl)acetic acid]	1
CC(C)(C)S(=O)(=O)C[C@H](C1CC1)N1C(=O)[C@@H](CC#N)O[C@H](c2cccc(Cl)c2)[C@H]1c1ccc(Cl)cc1 (single isomer, unassigned) [Example 388, 2-((2R,5R,6R)-4-((S)-2-(tert-Butylsulfonyl)-1-cyclopropylethyl)-6-(3-chlorophenyl)-5-(4-chlorophenyl)-3-oxomorpholin-2-yl)acetonitrile or 2-((2S,5R,6R)-4-((S)-2-(tert-butylsulfonyl)-1-cyclopropylethyl)-6-(3-chlorophenyl)-5-(4-chlorophenyl)-3-oxomorpholin-2-yl)acetonitrile]	28
CC(C)(C)S(=O)(=O)C[C@H](C1CC1)N1C(=O)[C@@H](CC(=O)O)O[C@H](c2cccc(Cl)c2)[C@H]1c1ccc(Cl)c(F)c1 (single isomer, unassigned) [Example 308, 2-((2R,5R,6R)-4-((S)-2-(tert-Butylsulfonyl)-1-cyclopropylethyl)-5-(4-chloro-3-fluorophenyl)-6-(3-chlorophenyl)-3-oxomorpholin-2-yl)acetic acid or 2-((2S,5R,6R)-4-((S)-2-(tert-butylsulfonyl)-1-cyclopropylethyl)-5-(4-chloro-3-fluorophenyl)-6-(3-chlorophenyl)-3-oxomorpholin-2-yl)acetic acid]	< 1
O=C(C[C@H]1O[C@H](c2cccc(Cl)c2)[C@@H](c2ccc(Cl)cc2)N([C@H](CN(c2ccccc2F)S(=O)(=O)C2CC2)C2CC2)C1=O)Nc1ccccn1 (single isomer, unassigned) [Example 369, 2-((2R,5R,6R)-6-(3-Chlorophenyl)-5-(4-chlorophenyl)-4-((S)-1-cyclopropyl-2-(N-(2-fluorophenyl)cyclopropanesulfonamido)ethyl)-3-oxomorpholin-2-yl)-N-(pyridin-2-yl)acetamide or 2-((2S,5R,6R)-6-(3-chlorophenyl)-5-(4-chlorophenyl)-4-((S)-1-cyclopropyl-2-(N-(2-fluorophenyl)cyclopropanesulfonamido)ethyl)-3-oxomorpholin-2-yl)-N-(pyridin-2-yl)acetamide]	8
CC[C@@H](CS(=O)(=O)C(C)(C)C)N1C(=O)[C@@H](C[C@@H](O)CO)O[C@H](c2cccc(Cl)c2)[C@H]1c1ccc(Cl)cc1 (single isomer, unassigned) [Example 371]	15
C[C@@H]1CCCN1S(=O)(=O)C[C@H](C1CC1)N1C(=O)[C@@H](CC(=O)O)O[C@H](c2cccc(Cl)c2)[C@H]1c1ccc(Cl)cc1 (single isomer, unassigned) [Example 305, 2-((2R,5R,6R)-6-(3-Chlorophenyl)-5-(4-chlorophenyl)-4-((S)-1-cyclopropyl-2-(((R)-2-methylpyrrolidin-1-yl)sulfonyl)ethyl)-3-oxomorpholin-2-yl)acetic acid or 2-((2S,5R,6R)-6-(3-chlorophenyl)-5-(4-chlorophenyl)-4-((S)-1-cyclopropyl-2-(((R)-2-methylpyrrolidin-1-yl)sulfonyl)ethyl)-3-oxomorpholin-2-yl)acetic acid]	< 1
CC[C@@H](CS(=O)(=O)C(C)C)N1C(=O)[C@@H](CC(=O)O)O[C@H](c2cc(Cl)cc(Cl)c2)[C@H]1c1ccc(Cl)cc1 (single isomer, unassigned) [Example 146, 2-((2R,5R,6R)-5-(4-chlorophenyl)-6-(3,5-dichlorophenyl)-4-((S)-1-(isopropylsulfonyl)butan-2-yl)-3-oxomorpholin-2-yl)acetic acid or 2-((2S,5R,6R)-5-(4-chlorophenyl)-6-(3,5-dichlorophenyl)-4-((S)-1-(isopropylsulfonyl)butan-2-yl)-3-oxomorpholin-2-yl)acetic acid]	15
CC(C)S(=O)(=O)[C@H]1CCC[C@@H]1N1C(=O)[C@@H](CC(=O)O)O[C@H](c2cccc(Cl)c2)[C@H]1c1ccc(Cl)cc1 (single isomer, unassigned) [Example 422]	3
CC(C)(C)S(=O)(=O)C[C@H](C1CC1)N1C(=O)[C@@H](CC(N)=O)O[C@H](c2cccc(Cl)c2)[C@H]1c1ccc(Cl)cc1 (single isomer, unassigned) [Example 357, 2-((2R,5R,6R)-4-((S)-2-(tert-Butylsulfonyl)-1-cyclopropylethyl)-6-(3-chlorophenyl)-5-(4-chlorophenyl)-3-oxomorpholin-2-yl)acetamide or 2-((2S,5R,6R)-4-((S)-2-(tert-butylsulfonyl)-1-cyclopropylethyl)-6-(3-chlorophenyl)-5-(4-chlorophenyl)-3-oxomorpholin-2-yl)acetamide]	6
O=C1[C@@H](Cc2cnn[nH]2)O[C@H](c2cccc(Cl)c2)[C@@H](c2ccc(Cl)cc2)N1[C@H](CN(c1ccccc1F)S(=O)(=O)C1CC1)C1CC1 (single isomer, unassigned) [Example 394, N-((S)-2-((2R,5R,6R)-2-((1H-1,2,3-Triazol-5-yl)methyl)-6-(3-chlorophenyl)-5-(4-chlorophenyl)-3-oxomorpholino)-2-cyclopropylethyl)-N-(2-fluorophenyl)cyclopropanesulfonamide or N-((S)-2-((2S,5R,6R)-2-((1H-1,2,3-triazol-5-yl)methyl)-6-(3-chlorophenyl)-5-(4-chlorophenyl)-3-oxomorpholino)-2-cyclopropylethyl)-N-(2-fluorophenyl)cyclopropanesulfonamide]	1
CC[C@]1(CC(=O)O)O[C@H](c2cccc(Cl)c2)[C@@H](c2ccc(Cl)cc2)N([C@@H](CC(F)(F)F)CS(=O)(=O)C(C)(C)C)C1=O (single isomer, unassigned) [Example 342, 2-((2R,5R,6R)-4-((S)-1-(tert-Butylsulfonyl)-4,4,4-trifluorobutan-2-yl)-6-(3-chlorophenyl)-5-(4-chlorophenyl)-2-ethyl-3-oxomorpholin-2-yl)acetic acid or 2-((2S,5R,6R)-4-((S)-1-(tert-butylsulfonyl)-4,4,4-trifluorobutan-2-yl)-6-(3-chlorophenyl)-5-(4-chlorophenyl)-2-ethyl-3-oxomorpholin-2-yl)acetic acid]	104
CC[C@@H](CN(c1ccccc1F)S(=O)(=O)C1CC1)N1C(=O)[C@@H]([C@@H](C)C(=O)O)O[C@H](c2cccc(Cl)c2)[C@H]1c1ccc(Cl)cc1 (single isomer, unassigned) [Example 253]	18
CC[C@@H](CS(=O)(=O)[C@H](C)C(C)C)N1C(=O)[C@H](CC(=O)O)O[C@H](c2cccc(Cl)c2)[C@H]1c1ccc(Cl)cc1 (single isomer, unassigned) [Example 285]	9
CC[C@@H](CS(=O)(=O)c1ccccn1)N1C(=O)[C@@H](CC(=O)O)O[C@H](c2cccc(Cl)c2)[C@H]1c1ccc(Cl)cc1 (single isomer, unassigned) [Example 203, 2-((2R,5R,6R)-6-(3-chlorophenyl)-5-(4-chlorophenyl)-3-oxo-4-((S)-1-(pyridin-2-ylsulfonyl)butan-2-yl)morpholin-2-yl)acetic acid or 2-((2S,5R,6R)-6-(3-chlorophenyl)-5-(4-chlorophenyl)-3-oxo-4-((S)-1-(pyridin-2-ylsulfonyl)butan-2-yl)morpholin-2-yl)acetic acid]	20
CC[C@@H](CS(=O)(=O)CC1CC1)N1C(=O)[C@@H](CC(=O)O)O[C@H](c2cccc(Cl)c2)[C@H]1c1ccc(Cl)cc1 (single isomer, unassigned) [Example 190, 2-((2R,5R,6R)-6-(3-chlorophenyl)-5-(4-chlorophenyl)-4-((S)-1-((cyclopropylmethyl)sulfonyl)butan-2-yl)-3-oxomorpholin-2-yl)acetic acid or 2-((2S,5R,6R)-6-(3-chlorophenyl)-5-(4-chlorophenyl)-4-((S)-1-((cyclopropylmethyl)sulfonyl)butan-2-yl)-3-oxomorpholin-2-yl)acetic acid]	3
C[C@]1(CC(=O)O)O[C@H](c2cccc(Cl)c2)[C@@H](c2ccc(Cl)cc2)N([C@H](CN(c2ccccc2F)S(=O)(=O)C2CC2)C2CC2)C1=O (single isomer, unassigned) [Example 331, 2-((2R,5R,6R)-6-(3-Chlorophenyl)-5-(4-chlorophenyl)-4-((S)-1-cyclopropyl-2-(N-(2-fluorophenyl)cyclopropanesulfonamido)ethyl)-2-methyl-3-oxomorpholin-2-yl)acetic acid or 2-((2S,5R,6R)-6-(3-chlorophenyl)-5-(4-chlorophenyl)-4-((S)-1-cyclopropyl-2-(N-(2-fluorophenyl)cyclopropanesulfonamido)ethyl)-2-methyl-3-oxomorpholin-2-yl)acetic acid]	< 1
